Data set [1] relates to Mortierella elongata AG77. The data set is described as follows: Carbon source utilisation in Biolog 96-well plates, formazan formation after tetrazolium addition. The data set is classed as cell-based. The conditions noted are these: for Metabolized: compound as carbon source, Metabolized = more formazan formation than a control containing no carbon source, observed visually at 2 h, 24 h, 148 h; for Carbon sources that Mortierella elongata AG77 can metabolize: summary of Table 3. The procedure, abridged:
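Scoring was by eye at 2, 24 and 148 h after tetrazolium chloride went into wells preincubated 24 h at 21 °C. Wells held lyophilised candidate carbon or nitrogen sources in pH 5.5 mineral medium lacking that nutrient, inoculated with 3 mm PDA-grown mycelial plugs. Formazan above the no-carbon control counted as metabolised and below it as toxic.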

Data set [2] has as its system Mortierella elongata AG77. Description: Nitrogen source utilisation in Biolog 96-well plates, formazan formation after tetrazolium addition. The format is cell-based. The conditions noted are these: for Metabolized: compound as nitrogen source, Metabolized = more formazan formation than a control containing no nitrogen source, observed visually at 2 h, 24 h, 148 h. The protocol: Two 300 mL volumes of growth medium comprising 1 g/L KH2PO4, 1 g/L MgSO4 7H2O, 0.1 g/L CaCl2, 0.02 g/L FeNaEDTA, 0.1 g/L NaCl, and either 1 g/L NH4NO3 or 20 g/L sucrose were prepared. […] Aliquots of 200 μL of carbon-free medium or nitrogen-free medium were pipetted into each well of a set of 96-well plates previously prepared with lyophilized putative carbon or nitrogen sources (Biolog Inc., Hayward, Calif.). Inocula were prepared by perforating a culture of Mortierella elongata AG77 grown on 20 g/L potato dextrose agar with a 3 mm diameter cork borer and separating the surface mycelial mat from the solid growth medium using tweezers. Each well was inoculated with one inoculum. Cultures were incubated at 21° C. for 24 hours to allow metabolic changes to stabilize, and then 100 μL of 3 g/L tetrazolium chloride in water was added to each well.
Conclusions were based on rate and intensity of formazan formation using the 3-(4,5-dimethylthiazol-2-yl)-2,5-diphenyltetrazolium bromide ([…]) assay. “Metabolized” indicates more formazan formation than a control containing no nitrogen source, and “Toxic” indicates less formazan formation than a control containing no nitrogen source, “Metabolized” and “Toxic” assignments are mutually exclusive. In this example, a compound may be “Metabolized” or “Toxic,” but not both.

The results in this text go back to patent US20200325505A1, “FILAMENTOUS FUNGI CAPABLE OF PRODUCING VERY LONG CHAIN FATTY ACIDS” (UT-Battelle, LLC, priority 2019, published 2020).

For `NCCCCN` [Putrescine], in data set [1], the Toxic entry is recorded as “no”, the Metabolized result was “yes” and the “Carbon sources that Mortierella elongata AG77 can metabolize” value is “can metabolize”. In data set [2], the Toxic result is on record as “no” and the Metabolized result is on record as “no”.
`Cc1cn([C@H]2C[C@H](O)[C@@H](CO)O2)c(=O)[nH]c1=O` [Thymidine]: the Toxic entry in data set [1] and in data set [2] was “no” each time. Further, the Metabolized result in data set [1] and in data set [2] was “no” throughout.
On to `NCCc1ccc(O)cc1` [Tyramine], for which, in data set [1], the Toxic result is on record as “no”, the Metabolized entry is “yes” and the “Carbon sources that Mortierella elongata AG77 can metabolize” value is given as “can metabolize”. Further, in data set [2], the Toxic entry was “no” and the Metabolized result is “no”.
For `O=c1ccn([C@@H]2O[C@H](CO)[C@@H](O)[C@H]2O)c(=O)[nH]1` [Uridine], in data set [1], the Toxic entry is given as “no” and the Metabolized result is “no”. In addition, in data set [2], the Toxic entry is given as “no” and the Metabolized result is “no”.
For `NCCCC(=O)O` [γ-Amino Butyric Acid], in data set [1], the Toxic entry is on record as “no” and the Metabolized entry is listed as “no”. Further, in data set [2], the Toxic result is “no” and the Metabolized entry is “yes”. For the same molecule, the “Nitrogen sources that Mortierella elongata AG77 can metabolize” value in data set [2] (text summary of Table 4) is given as “can metabolize”.
Regarding `NCCCCC(=O)O` [δ-Amino Valeric Acid], the Toxic result in data set [1] and in data set [2] was “no” throughout. In addition, the Metabolized result in data set [1] and in data set [2] was “no” each time.
